Source: the OligoGym collection
These antisense oligonucleotides have a phosphorothioate backbone; sugars and methylation of C are not fully specified.

How the values were obtained:
Settings in all cases: ASO
SELE = target: SELE
AKT2 = target: AKT2
IL1R1 = target: IL1R1
ERBB2 = target: ERBB2
Further: test concentration or dose not given here.

Sequence	remaining target (mRNA or protein) (fraction of control) (SELE)	remaining target (mRNA or protein) (fraction of control) (ERBB2)	other results
CTGTGAAGCAATCATGAC	0.96		
CTTGAGGCTGTTGGCGAC			remaining target (mRNA or protein) (fraction of control) (AKT2): 0.18
CTTGGAGAAGGCCTTGTCTT			remaining target (mRNA or protein) (fraction of control) (IL1R1): 0.75
CTTTCATATTCTTCTTGGAG			remaining target (mRNA or protein) (fraction of control) (IL1R1): 0.75
CTTTCCTGGGGAGATAAA	0.96		
CTTTGATGACAGACACCT			remaining target (mRNA or protein) (fraction of control) (AKT2): 0.23
GAAACAAATAAGTCTGAGTA			remaining target (mRNA or protein) (fraction of control) (IL1R1): 0.75
GAAATACTTTCCTCCGTTTTG	≥ 1		
GAAATACTTTCCTGGGGAGAT	0.81		
GAAGTCAGCCAAGAACAGCT	0.5		
GACAATATACAAACCTTCCAT	0.65		
GACCACGACCAGCAGAAT		0.76	
GACCATAGCACACTCGGG		0.57	
GACTTCAAGAGTTCT	0.82		
GAGCCACACTTGTAGTCC			remaining target (mRNA or protein) (fraction of control) (AKT2): 0.11
GAGTTCTTTTCACCC	0.63		
GATGTGAAGTCAGCCAA	0.51		

Sequence	remaining target (mRNA or protein) (fraction of control) (SELE)	remaining target (mRNA or protein) (fraction of control) (ERBB2)	other results
GCAAAGCGGGCCCAGGAGAA			remaining target (mRNA or protein) (fraction of control) (IL1R1): 0.3
GCAACGCCATAAGACAGGAG			remaining target (mRNA or protein) (fraction of control) (IL1R1): 0.75
GCACCACCTGGCAGCCCT		0.73	
GCACGAAGCAGAGGTGGG		0.47	
GCACTTCTCACACCGCTG		0.51	
GCAGCCGAGCCAGCCCGA		0.61	
GCAGCGGGAGCCCTTACA		0.83	
GCATGTCACAGCTGTAACAAA	0.5		
GCCACCACAGCCTCTCCCTC			remaining target (mRNA or protein) (fraction of control) (IL1R1): 0.42
GCCAGGGCATAGTTGTCC		0.81	
GCGGGATGACAGAAGAGCGG			remaining target (mRNA or protein) (fraction of control) (IL1R1): 0.75
GCTGGTTGTTCTTGTGGA		0.73	
GGAACTGCCTTTCGCGGTCT			remaining target (mRNA or protein) (fraction of control) (IL1R1): 0.75
GGAATGCAAAGCACATCCAT	0.71		
GGCAGTGTTGGAGGCTGG		0.57	
GGCTTGAAATACTTTCCT	0.84		
GGGAACTCAAGCAGGAAG		0.68	
